Measured values: article PMC9782603 (Viruses, 2022)
Read-outs that look alike come from different tables or passages of the source.

What was measured:
[1] = test system: HCV GT 1b subgenomic reporter replicon (strain Con1); assay: HCV GT 1b subgenomic replicon luciferase antiviral assay in Huh5-2 cells; assay type: cell-based; conditions: Hepatitis C virus, GT1B, Huh-5-2, 72 h, read-out: EC50 HCV Replicon 1b
[2] = test system: HCV GT 3a (strain S52) replicon; assay: HCV GT 3a subgenomic replicon luciferase antiviral assay in Huh7.5-3a cells; assay type: cell-based; conditions: Hepatitis C virus, GT3A, 72 h, read-out: EC50 HCV Replicon 3a
[3] = test system: HCV GT 4a (strain ED43) replicon; assay: HCV GT 4a subgenomic replicon luciferase antiviral assay in Huh7.5-4a cells; assay type: cell-based; conditions: Hepatitis C virus, GT4A, 72 h, read-out: EC50 HCV Replicon 4a
[4] = alamarBlue reduction cytotoxicity assay in replicon cells; assay type: cell-based; conditions: human, HCV Replicon 1b cells
[5] = test system: HCV GT 2a; assay: Activity against HCV GT 2a (data not shown); assay type: cell-based
[6] = test system: NS5B; conditions: cited from earlier work
[7] = test system: HCV GT-1b replicon; conditions: HCV GT-1b replicon luciferase reporter assay (n ≥ 2); cited from earlier work
[8] = Huh5-2, GT 1b (Con1), F-Luc, 3 days
[9] = Huh7.5-3a, GT 3a (S52), F-Luc, 3 days
[10] = Huh7.5-4a, GT 4a (ED43), F-Luc, 3 days
[11] = reported NS5B TP-2 inhibitors, Figure 1

SMILES	EC50 [1, 8] [µM]	EC50 [2, 9] [µM]	EC50 [3, 10] [µM]	CC50 at 3 days [4] [µM]	melting point [°C]	EC50 [1] [µM]	activity against GT 2a [5]	EC50 [2] [µM]	EC50 [3] [µM]	IC50 ([6]; enzymatic assays) [µM]	IC50 [6, 11] [µM]	EC50 [7] [µM]
O=C(O)c1cc([N+](=O)[O-])ccc1Nc1ccccc1 [1a, 5-nitro-2-(phenylamino)-benzoic acid]	> 10	> 10	> 10	> 200	–	–	–	–	–	–	–	–
Cc1cccc(Nc2ccc([N+](=O)[O-])cc2C(=O)O)c1 [1b, 5-nitro-2-(m-tolylamino)benzoic acid]	> 10	> 10	> 10	> 200	–	–	–	–	–	–	–	–
NC(=O)c1cc([N+](=O)[O-])ccc1Nc1ccccc1 [3a, 5-nitro-2-(phenylamino)benzamide]	> 10	> 10	> 10	70.69 ± 0.04	–	–	–	–	–	–	–	–
Cc1cccc(Nc2ccc([N+](=O)[O-])cc2C(N)=O)c1 [3b, 5-Nitro-2-(m-tolylamino) benzamide]	> 10	> 10	> 10	161.3 ± 0.07	188 to 190	–	–	–	–	–	–	–
O=c1ncn(-c2ccccc2)c2ccc([N+](=O)[O-])cc12 [4a, 6-Nitro-1-phenylquinazolin-4(1H)-one]	> 10	> 10	> 10	> 200	246 to 248	–	–	–	–	–	–	–
Cc1cccc(-n2cnc(=O)c3cc([N+](=O)[O-])ccc32)c1 [4b, 6-Nitro-1-(m-tolyl)quinazolin-4(1H)-one]	> 10	> 10	> 10	64.9 ± 0.03	185	–	–	–	–	–	–	–
Nc1ccc2c(c1)c(=O)ncn2-c1ccccc1 [5a, 6-Amino-1-phenylquinazolin-4(1H)-one]	9.84 ± 0.57	> 10	> 10	> 200	293 to 295	–	–	–	–	–	–	–
Cc1cccc(-n2cnc(=O)c3cc(N)ccc32)c1 [5b, 6-Amino-1-(m-tolyl)quinazolin-4(1H)-one]	> 10	> 10	> 10	> 200	288 to 290	–	–	–	–	–	–	–
O=C(CCl)Nc1ccc2c(c1)c(=O)ncn2-c1ccccc1 [6a, 2-Chloro-N-(4-oxo-1-phenyl-1,4-dihydroquinazolin-6-yl)acetamide]	> 10	> 10	> 10	104.2 ± 0.03	< 300	–	–	–	–	–	–	–
Cc1cccc(-n2cnc(=O)c3cc(NC(=O)CCl)ccc32)c1 [6b, 2-Chloro-N-(4-oxo-1-(m-tolyl)-1,4-dihydroquinazolin-6-yl)acetamide]	> 10	> 10	> 10	143 ± 14.2	290	–	–	–	–	–	–	–
Cc1ccc(OCC(=O)Nc2ccc3c(c2)c(=O)ncn3-c2ccccc2)cc1 [7a, N-(4-Oxo-1-phenyl-1,4-dihydroquinazolin-6-yl)-2-(p-tolyloxy)acetamide]	> 10	> 10	> 10	84.7 ± 14	220	–	–	–	–	–	–	–
O=C(COc1ccc(Cl)cc1)Nc1ccc2c(c1)c(=O)ncn2-c1ccccc1 [7b, 2-(4-Chlorophenoxy)-N-(4-oxo-1-phenyl-1,4-dihydroquinazolin-6-yl)acetamide]	> 10	> 10	> 10	154 ± 3.71	262	–	–	–	–	–	–	–
Cc1cc(OCC(=O)Nc2ccc3c(c2)c(=O)ncn3-c2ccccc2)ccc1Cl [7c, 2-(4-Chloro-3-methylphenoxy)-N-(4-oxo-1-phenyl-1,4-dihydroquinazolin-6-yl)acetamide]	> 10	> 10	> 10	75.2 ± 9.24	255	–	–	–	–	–	–	–
Cc1ccc(OCC(=O)Nc2ccc3c(c2)c(=O)ncn3-c2cccc(C)c2)cc1 [7d, N-(4-oxo-1-(m-tolyl)-1,4-dihydroquinazolin-6-yl)-2-(p-tolyloxy)acetamide]	> 10	> 10	> 10	50.1 ± 1.77	206	–	–	–	–	–	–	–
Cc1cccc(-n2cnc(=O)c3cc(NC(=O)COc4ccc(Cl)cc4)ccc32)c1 [7e, 2-(4-Chlorophenoxy)-N-(4-oxo-1-(m-tolyl)-1,4-dihydroquinazolin-6-yl)acetamide]	> 10	> 10	> 10	47.6 ± 5.56	255	–	–	–	–	–	–	–
Cc1cccc(-n2cnc(=O)c3cc(NC(=O)COc4ccc(Cl)c(C)c4)ccc32)c1 [7f, 2-(4-Chloro-3-methylphenoxy)-N-(4-oxo-1-(m-tolyl)-1,4-dihydroquinazolin-6-yl)acetamide]	> 10	> 10	> 10	105 ± 10.3	269	–	–	–	–	–	–	–
Cc1nc(=O)c2cc([N+](=O)[O-])ccc2n1-c1ccccc1 [8a, 2-Methyl-6-nitro-1-phenylquinazolin-4(1H)-one]	–	> 10	> 10	> 200	260 to 262	> 10	–	–	–	–	–	–

SMILES	EC50 [1, 8] [µM]	EC50 [2, 9] [µM]	EC50 [3, 10] [µM]	CC50 at 3 days [4] [µM]	melting point [°C]	EC50 [1] [µM]	activity against GT 2a [5]	EC50 [2] [µM]	EC50 [3] [µM]	IC50 ([6]; enzymatic assays) [µM]	IC50 [6, 11] [µM]	EC50 [7] [µM]
Cc1cccc(-n2c(C)nc(=O)c3cc([N+](=O)[O-])ccc32)c1 [8b, 2-Methyl-6-nitro-1-(m-tolyl)quinazolin-4(1H)-one]	–	> 10	> 10	151 ± 5.41	258 to 260	> 10	–	–	–	–	–	–
Cc1nc(=O)c2cc(N)ccc2n1-c1ccccc1 [9a, 6-Amino-2-methyl-1-phenylquinazolin-4(1H)-one]	–	> 10	> 10	> 200	268 to 270	> 10	–	–	–	–	–	–
Cc1cccc(-n2c(C)nc(=O)c3cc(N)ccc32)c1 [9b, 6-Amino-2-methyl-1-(m-tolyl)quinazolin-4(1H)-one]	> 10	> 10	> 10	> 200	270 to 273	–	–	–	–	–	–	–
Cc1nc(=O)c2cc(NC(=O)CCl)ccc2n1-c1ccccc1 [10a, 2-Chloro-N-(2-methyl-4-oxo-1-phenyl-1,4-dihydroquinazolin-6-yl)acetamide]	> 10	> 10	> 10	87.47 ± 0.24	285	–	–	–	–	–	–	–
Cc1cccc(-n2c(C)nc(=O)c3cc(NC(=O)CCl)ccc32)c1 [10b, 2-Chloro-N-(2-methyl-4-oxo-1-(m-tolyl)-1,4-dihydroquinazolin-6-yl)acetamide]	> 10	> 10	> 10	177.2 ± 0.03	280	–	–	–	–	–	–	–
Cc1cc(OCC(=O)Nc2ccc3c(c2)c(=O)nc(C)n3-c2ccccc2)ccc1Cl [11c, 2-(4-Chloro-3-methylphenoxy)-N-(2-methyl-4-oxo-1-phenyl-1,4-dihydroquinazolin-6-yl)acetamide]	> 10	> 10	> 10	> 200	271	–	–	–	–	–	–	–
Cc1ccc(OCC(=O)Nc2ccc3c(c2)c(=O)nc(C)n3-c2cccc(C)c2)cc1 [11d, N-(2-Methyl-4-oxo-1-(m-tolyl)-1,4-dihydroquinazolin-6-yl)-2-(p-tolyloxy)acetamide]	> 1	> 10	> 10	22.7 ± 2.23	270	–	–	–	–	–	–	–
Cc1cccc(-n2c(C)nc(=O)c3cc(NC(=O)COc4ccc(Cl)cc4)ccc32)c1 [11e, 2-(4-Chlorophenoxy)-N-(2-methyl-4-oxo-1-(m-tolyl)-1,4-dihydroquinazolin-6-yl)acetamide]	6.24 ± 0.04	8.4 ± 0.15	15.2 ± 0.29	36.6 ± 4.19	283	–	no activity	–	–	–	–	–
Cc1cccc(-n2c(C)nc(=O)c3cc(NC(=O)COc4ccc(Cl)c(C)c4)ccc32)c1 [11f, 2-(4-Chloro-3-methylphenoxy)-N-(2-methyl-4-oxo-1-(m-tolyl)-1,4-dihydroquinazolin-6-yl)acetamide]	> 1	> 10	> 10	27.4 ± 2.71	290	–	–	–	–	–	–	–
COC(=O)N[C@H](C(=O)N1CCC[C@H]1c1nc(-c2ccc(-c3ccc(-c4c[nH]c([C@@H]5CCCN5C(=O)[C@@H](NC(=O)OC)C(C)C)n4)cc3)cc2)c[nH]1)C(C)C [Daclatasvir, reference compound]	2.66e-05	–	–	17.7	–	–	–	2.12e-05	0.008 ± 0.001	–	–	–
CCc1ccc(/C=C2\SC(N[C@H](C(=O)O)c3ccc(F)cc3)=NC2=O)o1 [III]	–	–	–	–	–	–	–	–	–	3	–	–
CC1CCC(C(=O)N(c2cc(-c3ccccc3)sc2C(=O)O)C(C)C)CC1 (centres unmarked) [IV]	–	–	–	–	–	–	–	–	–	–	0.028	–
Cc1ccc(S(=O)(=O)Nc2cc(-c3ccc(F)cc3)sc2C(=O)O)cc1 [I]	–	–	–	–	–	–	–	–	–	–	0.29	–
O=c1ncn(Cc2c(F)cc(F)cc2F)c2ccc(Oc3cccc(-c4ccccn4)c3C(F)(F)F)cc12 [VIII]	–	–	–	–	–	–	–	–	–	–	–	0.31
CC1CCC(C(=O)N(c2ccc(Oc3ncccc3C(F)(F)F)cc2C(=O)O)C(C)C)CC1 (centres unmarked) [VI]	–	–	–	–	–	–	–	–	–	–	0.08	0.095
Cc1ccc(S(=O)(=O)Nc2ccc(Oc3ccccc3)cc2C(=O)O)cc1 [V]	–	–	–	–	–	–	–	–	–	–	0.22	> 30
